Values quoted from earlier work, collected in patent EP3373945B1, “AN ORAL DRUG FORMULATION COMPRISING SILYBIN” (ISTITUTO BIOCHIMICO ITALIANO GIOVANNI LORENZINI S.p.A., priority 2015, dated 2017).
Converted amounts (≈) assume the structure as drawn.

- water solubility: 430 µg/mL (≈ 891 µM)
SMILES: COc1cc(C2Oc3cc([C@H]4Oc5cc(O)cc(O)c5C(=O)[C@@H]4O)ccc3OC2CO)ccc1O (stereo partly shown) [silybin]
